Consider 8 compounds from ChEMBL document CHEMBL1649526, “Selection of heterogeneous vancomycin-intermediate Staphylococcus aureus by imipenem” (2009).

Common to all, as to type: functional
Assay [1] deals with Staphylococcus aureus. Nature of the assay: Antibacterial activity against homo-Methicillin-resistant and tetracycline-resistant and rifampicin-resistant Staphylococcus aureus deltaIP-rifR::vraSH14 by Etest method.
The test system of assay [2] is Staphylococcus aureus. The experiment in a line: Antibacterial activity against methicillin-susceptible, tetracycline-resistant and chloramphenicol-resistant Staphylococcus aureus deltaIP-KVR by Etest method.
Assay [3] relates to Staphylococcus aureus. Nature of the assay: Antibacterial activity against homo-Methicillin-resistant and tetracycline-resistant Staphylococcus aureus H14 harboring vraS S329L mutant gene by Etest method.
Assay [4] relates to Staphylococcus aureus. The experiment in a line: Antibacterial activity against methicillin-susceptible, tetracycline-resistant and chloramphenicol-resistant Staphylococcus aureus H14-KVR by Etest method.
Assay [5] relates to Staphylococcus aureus. The experiment in a line: Antibacterial activity against hetero-Methicillin-resistant and tetracycline-resistant and rifampicin-resistant Staphylococcus aureus deltaIP-rifR harboring RpoB H481Y mutant gene by Etest method.
Assay [6] has as its system Staphylococcus aureus. The experiment in a line: Antibacterial activity against hetero-Methicillin-resistant and tetracycline-resistant Staphylococcus aureus deltaIP by Etest method.
Assay [7] relates to Staphylococcus aureus. Nature of the assay: Antibacterial activity against homo-Methicillin-resistant and tetracycline-resistant Staphylococcus aureus deltaIP::vraSH14 harboring vraSH14 S329L mutant gene by Etest method.
Assay [8] relates to Staphylococcus aureus. The experiment in a line: Antibacterial activity against hetero-vancomycin-intermediate Staphylococcus aureus Mu3 by Etest method.

Values after ≈ are worked out from the molar mass of the structure shown. Positions of bridges follow the written chain, without caps; N, C: chain ends. Non-standard residues stand in square brackets, D forms with d. Residues, ends and D or L forms follow the SMILES beside them. *: point of attachment. Ileψ(thiazoline)Cys = CC[C@H](C)[C@H](N)C1=N[C@H](C(=O)*)CS1; dOrn = NCCC[C@@H](N)C(=O)O

One may read the MIC as the smallest concentration in the dilution series that meets the test's criterion for growth inhibition. A lower MIC goes with inhibition by little substance.

As to `CCCCCCCCCC(=O)N[C@@H](Cc1c[nH]c2ccccc12)C(=O)N[C@H](CC(N)=O)C(=O)N[C@@H](CC(=O)O)C(=O)N[C@@H]1C(=O)NCC(=O)N[C@@H](CCCN)C(=O)N[C@@H](CC(=O)O)C(=O)N[C@H](C)C(=O)N[C@@H](CC(=O)O)C(=O)NCC(=O)N[C@H](CO)C(=O)N[C@@H]([C@H](C)CC(=O)O)C(=O)N[C@@H](CC(=O)c2ccccc2N)C(=O)O[C@@H]1C`, the minimum inhibitory concentration (MIC) came out at 2 µg/mL (≈ 1.23 µM) against Staphylococcus aureus [1]; 0.5 µg/mL (≈ 0.309 µM) with Staphylococcus aureus [2]; 1.75 µg/mL (≈ 1.08 µM) against Staphylococcus aureus [3]; 0.5 µg/mL (≈ 0.309 µM) in the assay on Staphylococcus aureus [4]; 0.5 µg/mL (≈ 0.309 µM) against Staphylococcus aureus [5]; 0.75 µg/mL (≈ 0.463 µM) against Staphylococcus aureus [6]. Moreover, the minimal inhibitory concentration (MIC) against Staphylococcus aureus [7] amounted to 1.75 µg/mL (≈ 1.08 µM); against Staphylococcus aureus [8], 2 µg/mL (≈ 1.23 µM).
In the case of `CC[C@H](C)[C@H](N)C1=N[C@H](C(=O)N[C@@H](CC(C)C)C(=O)N[C@H](CCC(=O)O)C(=O)N[C@H](C(=O)N[C@H]2CCCCNC(=O)[C@H](CC(N)=O)NC(=O)[C@@H](CC(=O)O)NC(=O)[C@H](Cc3cnc[nH]3)NC(=O)[C@@H](Cc3ccccc3)NC(=O)[C@H]([C@@H](C)CC)NC(=O)[C@@H](CCCN)NC2=O)[C@@H](C)CC)CS1` [BACITRACIN] ({Ileψ(thiazoline)Cys}-L[dE]IK[dOrn]I[dF]H[dD]N; lactam 4-C), the MIC against Staphylococcus aureus [1] stood at 96 µg/mL (≈ 67.5 µM); against Staphylococcus aureus [2], 4 µg/mL (≈ 2.81 µM); with Staphylococcus aureus [3] it was 96 µg/mL (≈ 67.5 µM); against Staphylococcus aureus [4], 4 µg/mL (≈ 2.81 µM); against Staphylococcus aureus [5] it was 24 µg/mL (≈ 16.9 µM); against Staphylococcus aureus [6], 32 µg/mL (≈ 22.5 µM). Besides, the MIC in the assay on Staphylococcus aureus [7] worked out at 96 µg/mL (≈ 67.5 µM); against Staphylococcus aureus [8] it was 256 µg/mL (≈ 180 µM).
As to `C[C@@H]1O[C@@H]1P(=O)(O)O` [FOSFOMYCIN], the MIC against Staphylococcus aureus [1] came out at 96 µg/mL (≈ 695 µM); with Staphylococcus aureus [2], 0.38 µg/mL (≈ 2.75 µM); against Staphylococcus aureus [3] it was 96 µg/mL (≈ 695 µM); against Staphylococcus aureus [4], 0.38 µg/mL (≈ 2.75 µM); against Staphylococcus aureus [5], 1.5 µg/mL (≈ 10.9 µM); with Staphylococcus aureus [6], 1 µg/mL (≈ 7.24 µM). Moreover, the MIC against Staphylococcus aureus [7] is 96 µg/mL (≈ 695 µM); against Staphylococcus aureus [8], above 1020 µg/mL.
For the compound `C[C@@H](O)[C@H]1C(=O)N2C(C(=O)O)=C(SCCNC=N)C[C@H]12` [IMIPENEM ANHYDROUS], the MIC with Staphylococcus aureus [1] was above 32 µg/mL; with Staphylococcus aureus [2], 0.19 µg/mL (≈ 0.635 µM); against Staphylococcus aureus [3] it was above 32 µg/mL; with Staphylococcus aureus [4], 0.19 µg/mL (≈ 0.635 µM); in the assay on Staphylococcus aureus [5], 1 µg/mL (≈ 3.34 µM); in the assay on Staphylococcus aureus [6], 0.75 µg/mL (≈ 2.51 µM). The MIC with Staphylococcus aureus [7] and in the assay on Staphylococcus aureus [8] was above 32 µg/mL in each case.
Regarding `Cc1onc(-c2ccccc2)c1C(=O)N[C@@H]1C(=O)N2[C@@H]1SC(C)(C)[C@@H]2C(=O)O` [OXACILLIN], the minimal inhibitory concentration (MIC) against Staphylococcus aureus [1] was above 256 µg/mL; in the assay with Staphylococcus aureus [2] it was 1.5 µg/mL (≈ 3.74 µM); against Staphylococcus aureus [3], above 256 µg/mL; against Staphylococcus aureus [4], 1.5 µg/mL (≈ 3.74 µM); with Staphylococcus aureus [5], 5 µg/mL (≈ 12.5 µM); against Staphylococcus aureus [6], 6 µg/mL (≈ 14.9 µM). Further, the minimal inhibitory concentration (MIC) against Staphylococcus aureus [7] and in the assay with Staphylococcus aureus [8] was above 256 µg/mL in each case.
As to `CO[C@H]1/C=C/O[C@@]2(C)Oc3c(C)c(O)c4c(O)c(c(/C=N/N5CCN(C)CC5)c(O)c4c3C2=O)NC(=O)/C(C)=C\C=C\[C@H](C)[C@H](O)[C@@H](C)[C@@H](O)[C@@H](C)[C@H](OC(C)=O)[C@@H]1C` [RIFAMPIN], the MIC was above 32 µg/mL in the assay with Staphylococcus aureus [1]; 0.004 µg/mL (≈ 0.00486 µM) in the assay with Staphylococcus aureus [2]; 0.004 µg/mL (≈ 0.00486 µM) against Staphylococcus aureus [3]; 0.004 µg/mL (≈ 0.00486 µM) in the assay on Staphylococcus aureus [4]; above 32 µg/mL with Staphylococcus aureus [5]; 0.004 µg/mL (≈ 0.00486 µM) against Staphylococcus aureus [6]. Besides, the MIC against Staphylococcus aureus [7] came to 0.004 µg/mL (≈ 0.00486 µM); against Staphylococcus aureus [8] it was 0.006 µg/mL (≈ 0.00729 µM).
Consider `CN[C@H](CC(C)C)C(=O)N[C@H]1C(=O)N[C@@H](CC(N)=O)C(=O)N[C@H]2C(=O)N[C@H]3C(=O)N[C@H](C(=O)N[C@H](C(=O)O)c4cc(O)cc(O)c4-c4cc3ccc4O)[C@H](O)c3ccc(c(Cl)c3)Oc3cc2cc(c3O[C@@H]2O[C@H](CO)[C@@H](O)[C@H](O)[C@H]2O[C@H]2C[C@](C)(N)[C@H](O)[C@H](C)O2)Oc2ccc(cc2Cl)[C@H]1O` [VANCOMYCIN], for which the MIC with Staphylococcus aureus [1] is 3 µg/mL (≈ 2.07 µM); with Staphylococcus aureus [2], 0.75 µg/mL (≈ 0.518 µM); in the assay with Staphylococcus aureus [4], 0.75 µg/mL (≈ 0.518 µM); in the assay with Staphylococcus aureus [8], 3 µg/mL (≈ 2.07 µM).
For the compound GENTAMICIN, the MIC against Staphylococcus aureus [1] was found to be 1 µg/mL; against Staphylococcus aureus [2], 0.75 µg/mL; against Staphylococcus aureus [3] it was 0.75 µg/mL; with Staphylococcus aureus [4] it was 0.75 µg/mL; in the assay with Staphylococcus aureus [5] it was 1 µg/mL; against Staphylococcus aureus [6], 0.75 µg/mL. In addition, the minimum inhibitory concentration (MIC) with Staphylococcus aureus [7] was 0.75 µg/mL; in the assay with Staphylococcus aureus [8], 384 µg/mL.
